Source: patent US6552014B2, “Methods of inhibiting platelet activation with selective serotonin reuptake inhibitors” (HeartDrug Research, L.L.C., priority 1999, dated 2003)

Tests used:
PECAM-1 [1] = test: Ex vivo soluble PECAM-1 plasma levels in patients; design: species or system human; settings: patients with depression following myocardial infarction; after 16 weeks of the sertraline/placebo therapy
Method: Soluble P-selectin (Centocor, Inc., Malvern, Pa. USA); and PECAM-1 (Bender MedSystems, Vienna, Austria) are measured Plasma samples will be extracted with ethanol and then stored at −80° C. before final determination. Enzyme-linked immunosorbent assays will be used according standard techniques and as described herein.

[2] = single doses in volunteers; cited from earlier work
P-selectin = test: Whole blood flow cytometry; format: cell-based, human; settings: for P-Selectin (% +), % of cell positivity: Whole Blood
Text: For ex vivo assessment of the SSRIs effect on a PAM, a level of a PAM can be assessed by flow cytometry by first obtaining a sample that comprises platelets and then contacting the sample with a platelet activation agonist, such as phorbol myristate acetate (PMA), ADP (adenosine diphosphate), thrombin, collagen, and/or TRAP (thrombin receptor activating peptide), under conditions suitable for activation of platelets in the sample. The sample is in contact with the agonist preferably for a period of time effective to maximally activate the platelets. […] Then one contacts or stains the samples with a composition that comprises an anti-PAM antibody e.g., having a fluorescent label, preferably in an amount in excess of that required to bind the PAM expressed on the platelets, under conditions suitable for the formation of labeled complexes between the anti-PAM antibody and activated platelets. Then the formation of the complex in the sample is determined (detected or measured).
Four cc of blood was collected in a tube, containing 2 cc of acid-citrate-dextrose (ACD) (7.3 g citric acid, 22.0 g sodium citrate×2H2O and 24.5 glucose in a total amount of 1000 mL distilled water) and mixed well. The buffer, TBS (10 mM Tris, 0.15 M NaCl, pH 7.4) and the following fluorescein isothiocyanate (FITC) conjugated monoclonal antibodies (PharMingen, San Diego, Calif. USA, and DAKO, Calif., USA) were removed from a refrigerator and allowed to warm at room temperature (RT): CD41 (IIb/IIIa), CD31 (PECAM-1), CD62p (P-selectin), CD51/61 (Vitronectin receptor). Six amber tubes (1.25 ml) were obtained and marked. One Eppendorf tube (1.5 ml) was labeled with “Dill WB”, Patient ID #, Initial and Date. The amber tubes and Eppendorf tube were placed in the rack. […] of TBS buffer was pipetted to the labeled Eppendorf tube. The patient's whole blood tube was inverted gently twice to mix. 50 μl of whole blood was pipetted to the “Dill WB” labeled Eppendorf tube. The Eppendorf tube was capped and the diluted whole blood was mixed by inverting the Eppendorf tube gently two times 50 μl of diluted whole blood was pipetted to each amber tube. 5 μl of appropriate antibody was pipetted to the bottom of the corresponding amber tube. The tubes were covered with aluminum foil and incubated at 4° C. for 30 minutes. After incubation, 400 μl of 2% buffered paraformaldehyde was added. To prepare 2% Paraformaldehyde:Dilute 1 part 10% paraformaldehyde with 4 parts TBS. This solution was stored at 4° C. for up to one week. The amber tubes were closed with a lid tightly and stored in a refrigerator at 4° C. until the flow cytometric analysis. The samples are analyzed on a Becton Dickinson FACScan flow cytometer. The instrument is set up to measure forward light scatter (FSC), and FITC fluorescence. All parameters are collected using four decade logarithmic amplification.
The data in table 1 was obtained using the methods described herein, and in particular, in Examples 1 and 2. The levels of various PAMs were assess from samples of human volunteers. […] Baseline levels of the PAMs were also obtained (without exposure to sertraline or NDMS).

PECAM-1 [3] = test: Flow cytometry of platelet antigen expression, platelet rich plasma; format: cell-based, human; settings: PRP, desmethylsertraline 64.2 ng/ml
[4] = post-angioplasty patient on aspirin

| SMILES | ex vivo PECAM-1 plasma levels, in words (PECAM-1 [1]) | dose at which sedative potential is evident [2] [mg/daily] | P-Selectin (% +), % of cell positivity (P-selectin; healthy volunteers, desmethylsertraline 31.1 ng/ml) [%] | P-Selectin (% +), % of cell positivity (P-selectin; healthy volunteers, desmethylsertraline 64.2 ng/ml) [%] | P-Selectin (% +), % of cell positivity (P-selectin; healthy volunteers, desmethylsertraline 143 ng/ml) [%] | P-Selectin (% +), % of cell positivity (P-selectin; post-angioplasty patient on aspirin, desmethylsertraline 31.1 ng/ml) [%] | P-Selectin (% +), % of cell positivity (P-selectin; post-angioplasty patient on aspirin, desmethylsertraline 64.2 ng/ml) [%] | P-Selectin (% +), % of cell positivity (P-selectin; post-angioplasty patient on aspirin, desmethylsertraline 143 ng/ml) [%] | P-selectin expression (FIG. 4), in words (P-selectin; whole blood, post-angioplasty patient, increasing concentrations) | PECAM-1 (peak) log fluorescence intensity (PECAM-1 [3]; healthy volunteers) | PECAM-1 (mean) log fluorescence intensity (PECAM-1 [3]; [4]) | PECAM-1 (peak) log fluorescence intensity (PECAM-1 [3]; [4]) |
| --- | --- | --- | --- | --- | --- | --- | --- | --- | --- | --- | --- | --- |
| CN[C@H]1CC[C@@H](c2ccc(Cl)c(Cl)c2)c2ccccc21 [sertraline] | Mild, but consistent reduction | ≥ 200 |  |  |  |  |  |  |  |  |  |  |
| N[C@H]1CC[C@@H](c2ccc(Cl)c(Cl)c2)c2ccccc21 [Desmethyl sertraline, N-desmethylsertraline] |  |  | 1.2 | 3.3 | 0.4 | 10.68 | 8.04 | 9.92 | striking decreases in expression | 91 | 105 | 84 |
